Measured values published in patent US20260083722A1, “BIFUNCTIONAL DEGRADERS COMPRISING ELECTROPHILIC PROTACS THAT ENGAGE DCAF1 AND PHARMACEUTICAL COMPOSITIONS COMPRISING THE SAME” (THE SCRIPPS RESEARCH INSTITUTE, priority 2022, published 2026).

What was measured:
[1] = molecular target: T1, recombinant DCAF1-WT (a.a.'s 1046-1396) (Homo sapiens, UniProt Q9Y4B6); test: gel-ABPP with recombinant purified DCAF1-WT doped into HEK293T cell proteome; format: binding
T1 construct: form of DCAF1 containing the WD40 domain (amino acids (a.a.'s) 1046-1396); made in house
T1 sequence (Q9Y4B6 1046-1396): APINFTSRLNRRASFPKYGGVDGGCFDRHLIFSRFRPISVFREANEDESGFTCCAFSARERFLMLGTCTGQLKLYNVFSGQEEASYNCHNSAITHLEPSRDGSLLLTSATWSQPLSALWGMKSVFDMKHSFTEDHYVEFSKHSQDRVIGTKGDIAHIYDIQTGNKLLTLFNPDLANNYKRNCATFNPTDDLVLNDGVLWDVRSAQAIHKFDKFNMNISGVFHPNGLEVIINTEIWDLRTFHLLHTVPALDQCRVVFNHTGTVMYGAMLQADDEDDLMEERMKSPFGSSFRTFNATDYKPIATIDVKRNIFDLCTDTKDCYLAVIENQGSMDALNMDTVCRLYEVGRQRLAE
T1 sequence (Q16531 whole entry partner, the tested form may be a part): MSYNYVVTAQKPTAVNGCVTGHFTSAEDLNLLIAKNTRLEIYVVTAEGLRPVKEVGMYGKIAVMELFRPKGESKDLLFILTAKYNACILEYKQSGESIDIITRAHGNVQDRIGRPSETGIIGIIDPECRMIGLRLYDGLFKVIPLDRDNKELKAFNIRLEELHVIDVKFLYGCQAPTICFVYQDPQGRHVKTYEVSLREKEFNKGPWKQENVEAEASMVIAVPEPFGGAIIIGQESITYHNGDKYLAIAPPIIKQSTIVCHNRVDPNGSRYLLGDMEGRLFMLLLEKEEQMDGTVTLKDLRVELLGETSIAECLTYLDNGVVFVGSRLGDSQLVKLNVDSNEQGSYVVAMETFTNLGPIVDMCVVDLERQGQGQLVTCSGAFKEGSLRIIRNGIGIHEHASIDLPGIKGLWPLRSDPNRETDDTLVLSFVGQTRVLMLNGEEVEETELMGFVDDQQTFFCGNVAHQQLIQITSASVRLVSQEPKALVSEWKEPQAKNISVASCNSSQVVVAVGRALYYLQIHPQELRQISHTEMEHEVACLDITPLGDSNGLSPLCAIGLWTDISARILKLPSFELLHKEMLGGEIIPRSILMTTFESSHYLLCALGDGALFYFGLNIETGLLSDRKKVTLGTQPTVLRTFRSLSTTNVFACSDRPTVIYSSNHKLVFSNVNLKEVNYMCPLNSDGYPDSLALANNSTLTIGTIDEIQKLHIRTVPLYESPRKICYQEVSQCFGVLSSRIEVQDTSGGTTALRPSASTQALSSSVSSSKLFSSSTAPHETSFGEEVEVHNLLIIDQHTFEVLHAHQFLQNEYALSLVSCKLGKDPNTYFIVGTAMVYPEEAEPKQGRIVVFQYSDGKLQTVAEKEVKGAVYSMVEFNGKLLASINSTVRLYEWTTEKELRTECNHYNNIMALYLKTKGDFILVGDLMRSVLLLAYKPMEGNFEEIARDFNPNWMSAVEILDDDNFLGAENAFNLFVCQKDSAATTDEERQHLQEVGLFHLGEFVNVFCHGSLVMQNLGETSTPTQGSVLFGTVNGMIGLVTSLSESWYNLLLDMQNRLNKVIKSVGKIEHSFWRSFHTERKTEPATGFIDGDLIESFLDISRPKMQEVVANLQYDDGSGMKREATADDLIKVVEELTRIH
Excerpt: FIG. 2 that azetidine acrylamides stereo- and site-selectively engage recombinant DCAF1_C1113. (A) Domain map of DCAF1 with the region used for recombinant protein studies marked in a bracket (a.a.'s 1046-1396) and C1113 highlighted in red. (B) Crystal structure of a DCAF1-Vpx complex (pdb: 5AJA). DCAF1 (a.a.'s 1046-1396) is shown in cyan, Vpx is shown in yellow, and C1113, which is located at the DCAF1-Vpx interface is shown in red. (C) Structures of alkyne-modified azetidine acrylamides MY-11A (5) and MY-11B (6). (D) Gel-ABPP showing the concentration-dependent reactivity of MY-11A and MY-11B (1 h) reactivity with recombinant, purified DCAF1-WT or the DCAF1-C1113A mutant (0.06 μg/μL of DCAF1 protein per sample) doped into HEK293T cell proteome (1 μg/μL). MY-11A/B labeling of proteins was visualized by CuAAC conjugation to an azide-rhodamine tag followed by SDS-PAGE and in-gel fluorescence scanning. Results are from a single experiment representative of two independent experiments. (E) Gel-ABPP showing the concentration-dependent effects of MY-1A and MY-1B on MY-11B reactivity with DCAF1-WT. Samples were treated with MY-1A/B for 2 h, followed by MY-11B (25 μM, 1 h) and analyzed as described in (D). Left, quantification of data presented as mean values±SEM from two independent experiments. Right, representative gel-ABPP results. (D, E) Lower images are Coomassie blue-stained gels corresponding to ABPP gels shown in upper images.
(A) Structures of candidate electrophilic PROTACs YT41R (7), YT41S (8), YT47R (9), and YT47S (10). (B) Gel-ABPP showing the concentration-dependent effects of YT41R and YT47R on MY-11B reactivity with DCAF1-WT protein (0.06 μg/μL of DCAF1 protein per sample) doped into HEK293T cell proteome (1 μg/μL). Also shown are the effects of YT41S and YT47S tested at a single concentration (100 μM). Samples were treated with heterobifunctional compounds for 2 h, followed by MY-11B (25 μM, 1 h) and analyzed as described in FIG. 2D. Left, representative gel-ABPP results. Lower image is Coomassie blue-stained gel corresponding to ABPP gel shown in upper image. Right, quantification of data presented as mean values±SEM from two independent experiments.
DCAF1 is a multi-domain substrate receptor for CRL4 ligases (FIG. 2A) that has diverse physiological and disease functions, including being co-opted by the HIV-2 virus to promote degradation of the antiviral host protein SAMHD1^27-28. […] We verified the stereo- and site-selective engagement of DCAF1_C1113 by azetidine acrylamides using alkynylated analogues of MY-1A and MY-1B (MY-11A (5) and MY-11B (6), respectively; FIG. 2C). For these experiments, we doped into HEK293T cell lysates a recombinantly expressed and purified form of DCAF1 containing the WD40 domain (amino acids (a.a.'s) 1046-1396), in complex with the CRL4 adaptor protein DDB1^31, and exposed these samples to varying concentrations of MY-11A or MY-11B. After 1 h, we assessed MY-11A and MY-11B engagement of DCAF1 by copper-catalyzed azide-alkyne cycloaddition (CuAAC)^32 with an azide-rhodamine reporter tag followed by SDS-PAGE and in-gel fluorescence scanning^33. […] We used gel-ABPP to quantify an in vitro target engagement value (TE50) of approximately 25 μM (95% C.I.=13-38 μM) for MY-1B labeling of DCAF1 (FIG. 2E, left).

[2] = system: ternary complex of FKBP12 and DCAF1; test: co-immunoprecipitation of DCAF1 with HA-FKBP12 in HEK293T cells (ternary complex); format: cell-based; conditions: FLAG-DCAF1-WT, 5 μM, 2 h, in the presence of MG132 (10 μM)
Experimental: (A) Left, western blots showing effects of YT47R and YT47S on the immunoprecipitation (IP) of FLAG-DCAF1-WT or FLAG-DCAF1-C1113A with HA-FKBP12 in HEK293T cells co-expressing these proteins. Cells were treated with YT47R or YT47S (5 μM) for 2 h in the presence of MG132 (10 μM) prior to lysis and IP with an anti-HA antibody and western blotting for the indicated proteins (DCAF1, FKBP12, and ubiquitinated protein). Right, bar graphs quantifying DCAF1 (top) and ubiquitination (Ub) (bottom) in the indicated IP groups. (B) Left, western blots showing effects of YT47R and YT47S on the IP of endogenous DCAF1 with HA-FKBP12 in HEK293T cells expressing HA-FKBP12. Cells were treated with YT47R or YT47S (5 μM) for 2 h in the presence of MG132 (10 μM) prior to lysis and IP with an anti-HA antibody and western blotting for the indicated proteins (DCAF1, FKBP12). Right, bar graph quantifying DCAF1 in the indicated IP groups. For (A, B), data are mean values±SEM for three independent experiments. Statistical significance was calculated with unpaired two-tailed Student's t-tests comparing YT41R/YT47R- and DMSO-treated cells. **P<0.01, ****P<0.0001. (C) MS-ABPP quantification of IA-DTB labeling of the indicated cysteines in DCAF1 from FLAG-DCAF1-WT-expressing HEK293T cells treated with the indicated concentrations of YT47R (3 h) relative to cells treated with DMSO. Data represent average values±SEM from four independent experiments. Statistical significance was calculated with unpaired two-tailed Student's t-tests comparing compound to DMSO treated cells. *P<0.1.
Finally, we investigated whether electrophilic PROTACs induce a stable ternary complex of FKBP12 with DCAF1 and promote FKBP12 ubiquitination. […] A ternary complex was not observed in cells expressing the DCAF1-C1113A mutant (FIG. 6A), supporting that YT47R induces this complex through site-specifically reacting with C1113. […] In considering possible reasons why this ternary complex formation with endogenous DCAF1 was insufficient to support the degradation of recombinantly expressed FKBP12 (FIG. 4A), we speculate that our current PROTACs (YT41R, YT47R) may require further improvements in cellular properties to enable robust targeted protein degradation mediated by physiological concentrations of DCAF1.

[3] = molecular target: T2, DCAF1-C1113A mutant (Homo sapiens, UniProt Q9Y4B6, C1113A); test: gel-ABPP with recombinant DCAF1-C1113A mutant doped into HEK293T cell proteome; format: binding; conditions: 1 h
T2 construct: the region used for recombinant protein studies marked in a bracket (a.a.'s 1046-1396); made in house
T2 sequence (Q9Y4B6 1046-1396 C1113A): as the sequence (Q9Y4B6 1046-1396) above, with C68A counted along it
T2 sequence (Q16531 whole entry partner): as the sequence (Q16531 whole entry partner, the tested form may be a part) above
Excerpt: FIG. 2 that azetidine acrylamides stereo- and site-selectively engage recombinant DCAF1_C1113. (A) Domain map of DCAF1 with the region used for recombinant protein studies marked in a bracket (a.a.'s 1046-1396) and C1113 highlighted in red. (B) Crystal structure of a DCAF1-Vpx complex (pdb: 5AJA). DCAF1 (a.a.'s 1046-1396) is shown in cyan, Vpx is shown in yellow, and C1113, which is located at the DCAF1-Vpx interface is shown in red. (C) Structures of alkyne-modified azetidine acrylamides MY-11A (5) and MY-11B (6). […] MY-11A/B labeling of proteins was visualized by CuAAC conjugation to an azide-rhodamine tag followed by SDS-PAGE and in-gel fluorescence scanning. […] Samples were treated with MY-1A/B for 2 h, followed by MY-11B (25 μM, 1 h) and analyzed as described in (D). Left, quantification of data presented as mean values±SEM from two independent experiments. […]
DCAF1 is a multi-domain substrate receptor for CRL4 ligases (FIG. 2A) that has diverse physiological and disease functions, including being co-opted by the HIV-2 virus to promote degradation of the antiviral host protein SAMHD1^27-28. […] After 1 h, we assessed MY-11A and MY-11B engagement of DCAF1 by copper-catalyzed azide-alkyne cycloaddition (CuAAC)^32 with an azide-rhodamine reporter tag followed by SDS-PAGE and in-gel fluorescence scanning^33. […]

[4] = molecular target: T3, HA-FKBP12 (Homo sapiens, UniProt P62942); test: HA-FKBP12 abundance by Western blotting in transfected HEK293T cells; format: cell-based; conditions: 5 μM, 1 h pre-treatment
T3 construct: expressed in transfected cells; host or cells: HEK293T
T3 sequence (P62942 whole entry): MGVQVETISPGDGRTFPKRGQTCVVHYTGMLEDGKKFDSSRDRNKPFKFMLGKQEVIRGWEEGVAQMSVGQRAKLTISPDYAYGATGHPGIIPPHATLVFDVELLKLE
Excerpt: (A) Left, western blots showing concentration-dependent effects of YT47R (upper) and YT41R (lower) on FKBP12 abundance in HEK293T cells expressing HA-FBKP12 with or without co-expression of FLAG-DCAF1. Right, quantification of HA-FKBP12 abundance in the indicated experimental groups. (B) Left, western blots showing effects of YT47R versus YT47S (upper) and YT41R versus YT41S (lower) on FKBP12 abundance in HEK293T cells co-expressing HA-FBKP12 and FLAG-DCAF1. Right, quantification of HA-FKBP12 abundance in the indicated experimental groups. (C) Western blots showing effects of YT47R (left blots) and YT41R (right blots) on FKBP12 abundance in HEK293T cells co-expressing HA-FBKP12 and either FLAG-DCAF1-WT or FLAG-DCAF1-C1113A mutant. Quantification of HA-FKBP12 abundance in the indicated experimental groups is shown in the adjacent bar graphs. For (A-C), FKBP12 abundance was determined at 24 h post-treatment with compounds, and data are mean values±SEM for three independent experiments. Statistical significance was calculated with unpaired two-tailed Student's t-tests comparing YT41R/YT47R- and DMSO-treated cells. ***P<0.001, ****P<0.0001.
(A) Left, western blots showing effects of proteasome (MG132) and Neddylation (MLN4924) inhibitors (1 h pre-treatment) on YT47R- and YT41R-dependent degradation of FKBP12 in HEK293T cells co-expressing HA-FBKP12 and FLAG-DCAF1. FKBP12 abundance was determined at 24 h post-treatment with YT47R or YT41R. Right, quantification of HA-FKBP12 abundance in the indicated experimental groups. (B) Left, western blots showing effects of the FKBP12 ligand SLF (20 μM) or DCAF1 ligand MY-11B (1 h pre-treatment with 20 μM SLF or 5 μM MY-11B) on YT47R- and YT41R-dependent degradation of FKBP12 in HEK293T cells co-expressing HA-FBKP12 and FLAG-DCAF1. FKBP12 abundance was determined at 24 h post-treatment with YT47R or YT41R. Right, quantification of HA-FKBP12 abundance in the indicated experimental groups. (C) Left, western blots showing effects of MY-11A or MY-11B (5 μM, 1 h pre-treatment) on YT47R- and YT41R-dependent degradation of FKBP12 in HEK293T cells co-expressing HA-FBKP12 and FLAG-DCAF1. FKBP12 abundance was determined at 24 h post-treatment with YT47R or YT41R. Right, quantification of HA-FKBP12 abundance in the indicated experimental groups. For (A-C), data are mean values±SEM for three-five independent experiments. Statistical significance was calculated with unpaired two-tailed Student's t-tests comparing YT41R/YT47R- and DMSO-treated cells. ****P<0.0001.
Figure S3. Concentration-dependent degradation of FKBP12 by DCAF1-directed electrophilic PROTACs. Top, western blots showing concentration-dependent effects of YT47R and YT41R on FKBP12 abundance in HEK293T cells co-expressing HA-FBKP12 and FLAG-DCAF1. Data are mean values±SEM for four independent experiments. Statistical significance was calculated with unpaired two-tailed Student's t-tests comparing YT41R/YT47R- and DMSO-treated cells. *P<0.1, **P<0.01, ***P<0.001, ****P<0.0001.
Figure S4. Time-dependent degradation of FKBP12 by DCAF1-directed electrophilic PROTACs. Top, western blots showing time-dependent effects of YT47R and YT41R (2 μM each) on FKBP12 abundance in HEK293T cells co-expressing HA-FBKP12 and FLAG-DCAF1. Data are mean values±SEM for four independent experiments. Statistical significance was calculated with unpaired two-tailed Student's t-tests comparing YT41R/YT47R- and DMSO-treated cells. ****P<0.0001.
We next treated HEK293T cells co-transfected with FLAG epitope-tagged full length DCAF1 (a.a.'s 1-1507) and HA (hemagglutinin) epitope-tagged FKBP12 with a concentration range of YT41R or YT47R and, after 24 h, measured HA-FKBP12 abundance by Western blotting.

C=CC(=O)N1C[C@@H](c2ccc(C(=O)NCCOCCOCCOCCNC(=O)COc3cccc([C@@H](CCc4ccc(OC)c(OC)c4)OC(=O)[C@@H]4CCCCN4C(=O)C(=O)C(C)(C)CC)c3)cc2)[C@H]1C(=O)Nc1cccc2cccnc12 [YT47S]
inhibition of MY-11B probe reactivity with recombinant DCAF1 ([1]; 2 h, then MY-11B 25 μM 1 h, YT41S and YT47S at single concentration 100 μM): did not impair | ternary complex of FKBP12 and DCAF1 [2]: not

C#Cc1ccc([C@H]2CN(C(=O)C=C)[C@H]2C(=O)Nc2cccc3cccnc23)cc1 [MY-11B, (2R,3S)-1-acryloyl-3-(4-ethynylphenyl)-N-(88uinoline-8-yl) azetidine-2-carboxamide]
labeling of recombinant DCAF1 by alkyne probe ([1]; 1 h, DCAF1-WT, CuAAC azide-rhodamine, in-gel fluorescence): much greater concentration-dependent labeling | labeling of DCAF1-C1113A mutant by alkyne probe [3]: blocked by mutation of C1113 to alanine | effect on YT41R/YT47R-mediated degradation of HA-FKBP12 [4]: blocked
